{"source": "patent US10869924B2", "about": "“PD-L1 antagonist combination treatments” (MERCK PATENT GMBH, priority 2015, dated 2020)", "key": {"[1]": {"test_system": "clear cell aRCC", "settings": "cited from earlier work; for median PFS (mPFS): previously untreated patients with clear cell aRCC, axitinib 5 mg BID, single agent"}, "[2]": {"test_system": "human PBMC", "experiment": "Cytokine release, standard human PBMC in vitro test", "format": "cell-based", "from_the_text": "The combination of avelumab plus anti-4-1BB antibody PF-05082566 and anti-OX40 antibody PF-04518600 has been evaluated for cytokine release using the standard human PBMC in vitro test. The cytokine release assay was completed for PF-05082566 alone and in combination with avelumab and PF-04518600."}}}
{"compound": "CNC(=O)c1ccccc1Sc1ccc2c(/C=C/c3ccccn3)n[nH]c2c1", "note": "[axitinib, N-methyl-2-[3-((E)-2-pyridin-2-yl-vinyl)-1H-indazol-6-ylsulfanyl]-benzamide]", "values": [{"measurement": "stratified hazard ratio (PFS)", "setting": "[1]; axitinib vs. sorafenib, 95% CI 0.56, 1.05", "result": 0.77}, {"measurement": "median PFS (mPFS)", "setting": "[1]", "result": 10.1, "unit": "months"}]}
{"compound": "CNC(=O)c1cc(Oc2ccc(NC(=O)Nc3ccc(Cl)c(C(F)(F)F)c3)cc2)ccn1", "note": "[sorafenib]", "values": [{"measurement": "median PFS (mPFS)", "setting": "[1]", "result": 6.5, "unit": "months"}]}
{"compound": "PF-05082566: novel fully human IgG2 monoclonal antibody agonist of 4-1BB", "values": [{"measurement": "cytokine release", "setting": "[2]", "result": "did not show a significant increase in cytokine release"}]}
